Experimental data: patent US20260078103A1, “ISOQUINOLONES AS PI3K INHIBITORS” (OnKure, Inc., priority 2022, published 2026)
Like-named read-outs stand apart in the source and are kept apart here.

Legend:
Type in all cases: cell-based
[1] = system: SKBR3 cells express WT PI3Ka; assay: In vitro cell proliferation, SKBR3 cells (CellTiter-Glo); details: inhibition of proliferation
Summary of the method: (§1)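 T47D cells in RPMI/10% FBS/insulin (0.2 units/mL) or SKBR3 in McCoys 5a/10% FBS, 1,500 cells/well, grown 72 h at 37 °C with 10-point compound dilutions. CellTiter-Glo luminescence; % inhibition normalised to 0.1% DMSO and 10 uM Alpelisib, EC50 from four-parameter curve fit.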

[2] = system: T47D cells expressing mutant PI3Ka (H1047R); assay: In vitro cell proliferation, T47D cells (CellTiter-Glo); details: inhibition of proliferation, read-out: Avg T-47D EC50
Summary of the method: as §1

[3] = system: phosphorylation of AKT (pAKT) in SKBR3 cells express WT PI3Ka; assay: In vitro cell pAKT (Ser473) HTRF, SKBR3 cells; details: cellular pAKT
Summary of the method: (§2)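 pAKT (Ser473) was quantified by HTRF in lysates from cells exposed 6 h at 37 °C to 10-point compound series, with T47D in insulin-supplemented RPMI/10% FBS and SKBR3 in McCoy's 5a/10% FBS. Controls: 0.1% DMSO (high) and 10 uM alpelisib (low). IC50 from sigmoidal curve fitting.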

[4] = system: phosphorylation of AKT (pAKT) in T47D cells expressing mutant PI3Ka (H1047R); assay: In vitro cell pAKT (Ser473) HTRF, T47D cells; details: cellular pAKT, T47D cells, mutant PI3Ka (H1047R), 6 hours, read-out: Avg T-47D IC50
Summary of the method: as §2

Row | SMILES | EC50 ([1]; 72 hours) | EC50 ([2]; 72 hours) | IC50 ([3]; 6 hours) | IC50 [4] | EC50 ([1]; Homo sapiens, SK-BR-3, 72 h) | EC50 ([2]; Homo sapiens, T47D, 72 h) | IC50 ([3]; Homo sapiens, SK-BR-3, 6 h) | IC50 ([4]; Homo sapiens, T47D, 6 h)
1 | Cc1cc([C@@H](C)Nc2ccccc2C(=O)O)c2cc(C34CC(c5ccc(F)cc5)(C3)C4)n(C)c(=O)c2c1 [Example 321] | > 15 µM | 1 to 500 nM | 2 to 15 µM | 1 to 500 nM |  |  |  | 
2 | CCON1CC2CCC(C1)N2c1cc2c([C@@H](C)Nc3ccccc3C(=O)O)cc(F)cc2c(=O)n1C [Example 44, 2-(((1R)-1-(3-(3-ethoxy-3,8-diazabicyclo[3.2.1]octan-8-yl)-7-fluoro-2-methyl-1-oxo-1,2-dihydroisoquinolin-5-yl)ethyl)amino)benzoic acid] |  |  |  |  | 2 to 15 µM | 1 to 500 nM | 2 to 15 µM | 1 to 500 nM
3 | Cc1cc([C@@H](C)Nc2ccccc2C(=O)O)c2cc(N3CCN(c4ccc(C)nn4)CC3)n(C)c(=O)c2c1 [Example 551] |  |  |  |  | 2 to 15 µM | 1 to 500 nM | 2 to 15 µM | 1 to 500 nM
4 | Cc1ncc(-c2c(F)c3c([C@@H](C)Nc4ccccc4C(=O)O)cc(F)cc3c(=O)n2C)s1 [Example 582] |  |  |  |  | > 15 µM | 1 to 500 nM | > 15 µM | 1 to 500 nM
5 | Cc1cc([C@@H](C)Nc2cccc(F)c2C(=O)O)c2cc(C3C[C@H]3C)n(C)c(=O)c2c1 (single isomer, unassigned) [Example 355] |  |  |  |  | > 15 µM | 1 to 500 nM | > 15 µM | 1 to 500 nM
6 | C[C@@H](Nc1ccccc1C(=O)O)c1cc(F)cc2c(=O)n(C)c(N3CCN(CC(F)(F)F)CC3)cc12 [Example 316] |  |  |  |  | > 15 µM | 1 to 500 nM | > 15 µM | 1 to 500 nM
7 | Cc1cc([C@@H](C)Nc2ccccc2C(=O)O)c2cc(N3CCn4cc(C(F)(F)F)nc4C3)n(C)c(=O)c2c1 [Example 432] |  |  |  |  | > 15 µM | 500 to 2000 nM | > 15 µM | 1 to 500 nM
8 | Cc1cc([C@@H](C)Nc2ccccc2C(=O)O)c2cc(-c3cnc(C(C)C)cn3)n(C)c(=O)c2c1 [Example 516] |  |  |  |  | > 15 µM | 1 to 500 nM | > 15 µM | 1 to 500 nM
9 | Cc1cc(C(C)Nc2ccccc2C(=O)O)c2cc(N3Cc4cccc(C(F)(F)F)c4C3)n(C)c(=O)c2c1 (single isomer, unassigned) [Example 93] | > 15 µM | 2000 to 15000 nM | > 15 µM | > 15000 nM |  |  |  | 
10 | CC(Nc1ccccc1C(=O)O)c1cc(F)cc2c(=O)n(C)c(N3CCN(CC(F)(F)F)CC3)c(F)c12 (single isomer, unassigned) [Example 573] | > 15 µM | 2000 to 15000 nM | > 15 µM | 2000 to 15000 nM |  |  |  | 
11 | Cc1cc([C@@H](C)Nc2ccccc2C(=O)O)c2cc(N3CCN(c4cnc(C)c(F)c4)CC3)n(C)c(=O)c2c1 [Example 367] | 2 to 15 µM | 1 to 500 nM | 2 to 15 µM | 1 to 500 nM |  |  |  | 
12 | C[C@@H](Nc1ccccc1C(=O)O)c1cc(F)cc2c(=O)n(C)c(-c3cnc(-c4ncc(Cl)cc4F)c(F)c3)cc12 [Example 505] | > 15 µM | 1 to 500 nM | > 15 µM | 1 to 500 nM |  |  |  | 
13 | COc1ncc(-c2c(F)c3c([C@@H](C)Nc4ccccc4C(=O)O)cc(F)cc3c(=O)n2C)s1 [Example 581] |  |  |  |  | > 15 µM | 1 to 500 nM | > 15 µM | 1 to 500 nM
14 | Cc1cc(C(C)Nc2ccccc2C(=O)O)c2cc(-c3ccc(N4CCOCC4)nc3)n(C)c(=O)c2c1 (single isomer, unassigned) [Example 486] | > 15 µM | 2000 to 15000 nM | > 15 µM | 2000 to 15000 nM |  |  |  | 
15 | Cc1cc(C(C)Nc2ccccc2C(=O)O)c2cc(N3Cc4cc(F)cc(F)c4C3)n(C)c(=O)c2c1 (stereo not drawn) [Example 84] |  |  |  |  | > 15 µM | 500 to 2000 nM | > 15 µM | 1 to 500 nM
16 | C[C@@H](Nc1cccc(F)c1C(=O)O)c1cc(F)cc2c(=O)n(C)c(C3CC3)cc12 [Example 454] |  |  |  |  | > 15 µM | 1 to 500 nM | > 15 µM | 1 to 500 nM
17 | CC(=O)N1CCC2(CC1)CCN(c1cc3c(C(C)Nc4ccccc4C(=O)O)cc(C)cc3c(=O)n1C)CC2 (single isomer, unassigned) [Example 135] | > 15 µM | 2000 to 15000 nM | > 15 µM | > 15000 nM |  |  |  | 
18 | Cc1cc([C@@H](C)Nc2ccccc2C(=O)O)c2cc(-c3cnc(C(C)(C)F)nc3)n(C)c(=O)c2c1 [Example 283] |  |  |  |  | > 15 µM | 1 to 500 nM | > 15 µM | 1 to 500 nM

Row | SMILES | EC50 ([1]; 72 hours) | EC50 ([2]; 72 hours) | IC50 ([3]; 6 hours) | IC50 [4] | EC50 ([1]; Homo sapiens, SK-BR-3, 72 h) | EC50 ([2]; Homo sapiens, T47D, 72 h) | IC50 ([3]; Homo sapiens, SK-BR-3, 6 h) | IC50 ([4]; Homo sapiens, T47D, 6 h)
19 | Cc1cc([C@@H](C)Nc2cccc(F)c2C(=O)O)c2cc(C3CC3)n(C)c(=O)c2c1 [Example 320] |  |  |  |  | > 15 µM | 1 to 500 nM | > 15 µM | 1 to 500 nM
20 | C[C@@H](Nc1ccccc1C(=O)O)c1cc(F)cc2c(=O)n(C)c(C3C[C@@H]3C(F)F)cc12 (single isomer, unassigned) [Example 489] | > 15 µM | 1 to 500 nM | > 15 µM | 1 to 500 nM |  |  |  | 
21 | Cc1cc(C(C)Nc2ccccc2C(=O)O)c2cc(N3C[C@@H]4CCCC[C@H]4C3)n(C)c(=O)c2c1 (single isomer, unassigned) [Example 100] |  | 1 to 500 nM |  | 1 to 500 nM | > 15 µM |  | > 15 µM | 
22 | Cc1cc(C(C)Nc2ccccc2C(=O)O)c2cc(N3CC4(CCN(CC(F)(F)F)CC4)C3)n(C)c(=O)c2c1 (stereo not drawn) [Example 172] | > 15 µM | 1 to 500 nM | > 15 µM | 1 to 500 nM |  |  |  | 
23 | Cc1ncc(F)cc1-c1ncc(-c2cc3c([C@@H](C)Nc4ccccc4C(=O)O)cc(F)cc3c(=O)n2C)cc1F [Example 323] |  |  |  |  | 2 to 15 µM | 1 to 500 nM | 2 to 15 µM | 1 to 500 nM
24 | Cc1cc([C@@H](C)Nc2ccccc2C(=O)O)c2cc(N3CC(C)(C#N)C3)n(C)c(=O)c2c1 [Example 165] | > 15 µM | 500 to 2000 nM | > 15 µM | 1 to 500 nM |  |  |  | 
25 | Cc1cc([C@@H](C)Nc2ccccc2C(=O)O)c2cc(N3CCC4(CC3)CN(CC(F)(F)F)C4)n(C)c(=O)c2c1 [Example 219] | 2 to 15 µM | 1 to 500 nM | 2 to 15 µM | 1 to 500 nM |  |  |  | 
26 | CCN1CCN(c2cc3c([C@@H](C)Nc4ccccc4C(=O)O)cc(C)cc3c(=O)n2C)CC1C(F)(F)F (single isomer, unassigned) [Example 267] | 2 to 15 µM | 1 to 500 nM | > 15 µM | 1 to 500 nM |  |  |  | 
27 | Cc1cc(C(C)Nc2ccccc2C(=O)O)c2cc(N3Cc4ccncc4C3)n(C)c(=O)c2c1 (stereo not drawn) [Example 66] |  |  |  |  | > 15 µM | 1 to 500 nM | > 15 µM | 1 to 500 nM
28 | C[C@@H](Nc1cccc(F)c1C(=O)O)c1cc(F)cc2c(=O)n(C)c(N3CC[C@H](C(F)(F)F)C3)cc12 [Example 416] |  |  |  |  | > 15 µM | 500 to 2000 nM | > 15 µM | 500 to 2000 nM
29 | Cc1cc([C@@H](C)Nc2ccccc2C(=O)O)c2cc(N3CC4(CCCN(CC(F)(F)F)C4)C3)n(C)c(=O)c2c1 [Example 195] | > 15 µM | 500 to 2000 nM | > 15 µM | 1 to 500 nM |  |  |  | 
30 | Cc1cc(C(C)Nc2ccccc2C(=O)O)c2cc(N3CCN(c4ccc(C)nc4)CC3)n(C)c(=O)c2c1 (single isomer, unassigned) [Example 146] | > 15 µM | 2000 to 15000 nM | > 15 µM | > 15000 nM |  |  |  | 
31 | Cc1ccc(-c2ncc(-c3cc4c([C@@H](C)Nc5ccccc5C(=O)O)cc(F)cc4c(=O)n3C)cc2F)c(C)n1 [Example 472] |  |  |  |  | 2 to 15 µM | 1 to 500 nM | 2 to 15 µM | 1 to 500 nM
32 | COCCC(=O)N1CCN(c2cc3c(C(C)Nc4ccccc4C(=O)O)cc(C)cc3c(=O)n2C)CC1 (single isomer, unassigned) [Example 112] | > 15 µM | 2000 to 15000 nM |  | > 15000 nM |  |  | > 15 µM | 
33 | C[C@@H](Nc1ccccc1C(=O)O)c1cc(F)cc2c(=O)n(C)c(-c3cnc(C4(C5CC5)CC4)nc3)cc12 [Example 47, (R)-2-((1-(3-(2-([1,1′-bi(cyclopropan)]-1-yl)pyrimidin-5-yl)-7-fluoro-2-methyl-1-oxo-1,2-dihydroisoquinolin-5-yl)ethyl)amino)benzoic acid] |  |  |  |  | > 15 µM | 1 to 500 nM | > 15 µM | 1 to 500 nM
34 | Cc1cc([C@@H](C)Nc2ccccc2C(=O)O)c2cc(N3CCN(c4cnn(C)n4)CC3)n(C)c(=O)c2c1 [Example 231] |  |  |  |  | 2 to 15 µM | 1 to 500 nM | 2 to 15 µM | 1 to 500 nM
35 | C[C@@H](Nc1cccc(F)c1C(=O)O)c1cc(F)cc2c(=O)n(C)c(N3CCN(c4cnn(C(C)(C)C#N)c4)CC3)cc12 [Example 424] |  |  |  |  | > 15 µM | 1 to 500 nM | 2 to 15 µM | 1 to 500 nM
36 | Cc1cc([C@@H](C)Nc2ccccc2C(=O)O)c2cc(N3CCN(c4cncnc4)CC3)n(C)c(=O)c2c1 [Example 235] |  |  |  |  | 2 to 15 µM | 1 to 500 nM | 2 to 15 µM | 500 to 2000 nM
